Key:
[1] = biological target: T1, ROCK2 (Homo sapiens, UniProt O75116); assay: ROCK2 kinase assay (Reaction Biology Hot Spot kinase assay); type: biochemical; conditions: purified kinase, 33P-ATP (10 μM), P81 filter-binding method
T1 construct: purchased Reaction Biology
Procedure: (§1) ROCK2 and ROCK] kinase assays
(§2) ROCK2 and ROCK1 enzyme potencies were determined by Reaction Biology (www.reactionbiology.com) using their Hot Spot kinase Assay. The base reaction buffer for the assay was 20 mM Hepes (pH 7.5), 10 mM MgCl2, 1 mM EGTA, 0.01% Brij35, 0.02 mg/mL BSA, 0.1 mM Na3VO4, and 2 mM DTT with a 1% DMSO concentration. Required cofactors were added individually to each kinase reaction. The substrate was freshly prepared in the reaction buffer described above, and then cofactors were delivered. The purified kinase was added to the substrate solution and then gently mixed. Compounds were added from 100% DMSO into the kinase reaction mixture by Acoustic technology (Echo550; nanoliter range) and then incubated for 20 min at room temperature. ^33P-ATP (10 μM) was delivered to initiate the reaction, and then the mixture was incubated again for two hours at room temperature. […] Nat. Biotechnol. 2011 Oct. 30; 29(11):1039-45. doi: 10.1038/nbt.2017.
(§3) The compounds were categorized based on IC50 value as “+”, “++”, “+++”, and “++++”. The category “+” refers to compounds with ROCK IC50 value of >10 μM. The category “++” refers to compounds with a ROCK IC50 value of 10 to 3 μM. The category “+++” refers to compounds with ROCK IC50 value of 3 to 0.3 μM. The category “++++” refers to compounds with a ROCK IC50 value of <0.3 μM. “ND” refers to “not determined.” The compound of an “Example Number” is the final product of an Example entitled the Example Number.

[2] = biological target: T2, ROCK1 (Homo sapiens, UniProt Q13464); assay: ROCK1 kinase assay (Reaction Biology Hot Spot kinase assay); type: biochemical; conditions: purified kinase, 33P-ATP (10 μM), P81 filter-binding method
T2 construct: purchased Reaction Biology
Procedure: as §1, §2, §3

T1 sequence (O75116 whole entry): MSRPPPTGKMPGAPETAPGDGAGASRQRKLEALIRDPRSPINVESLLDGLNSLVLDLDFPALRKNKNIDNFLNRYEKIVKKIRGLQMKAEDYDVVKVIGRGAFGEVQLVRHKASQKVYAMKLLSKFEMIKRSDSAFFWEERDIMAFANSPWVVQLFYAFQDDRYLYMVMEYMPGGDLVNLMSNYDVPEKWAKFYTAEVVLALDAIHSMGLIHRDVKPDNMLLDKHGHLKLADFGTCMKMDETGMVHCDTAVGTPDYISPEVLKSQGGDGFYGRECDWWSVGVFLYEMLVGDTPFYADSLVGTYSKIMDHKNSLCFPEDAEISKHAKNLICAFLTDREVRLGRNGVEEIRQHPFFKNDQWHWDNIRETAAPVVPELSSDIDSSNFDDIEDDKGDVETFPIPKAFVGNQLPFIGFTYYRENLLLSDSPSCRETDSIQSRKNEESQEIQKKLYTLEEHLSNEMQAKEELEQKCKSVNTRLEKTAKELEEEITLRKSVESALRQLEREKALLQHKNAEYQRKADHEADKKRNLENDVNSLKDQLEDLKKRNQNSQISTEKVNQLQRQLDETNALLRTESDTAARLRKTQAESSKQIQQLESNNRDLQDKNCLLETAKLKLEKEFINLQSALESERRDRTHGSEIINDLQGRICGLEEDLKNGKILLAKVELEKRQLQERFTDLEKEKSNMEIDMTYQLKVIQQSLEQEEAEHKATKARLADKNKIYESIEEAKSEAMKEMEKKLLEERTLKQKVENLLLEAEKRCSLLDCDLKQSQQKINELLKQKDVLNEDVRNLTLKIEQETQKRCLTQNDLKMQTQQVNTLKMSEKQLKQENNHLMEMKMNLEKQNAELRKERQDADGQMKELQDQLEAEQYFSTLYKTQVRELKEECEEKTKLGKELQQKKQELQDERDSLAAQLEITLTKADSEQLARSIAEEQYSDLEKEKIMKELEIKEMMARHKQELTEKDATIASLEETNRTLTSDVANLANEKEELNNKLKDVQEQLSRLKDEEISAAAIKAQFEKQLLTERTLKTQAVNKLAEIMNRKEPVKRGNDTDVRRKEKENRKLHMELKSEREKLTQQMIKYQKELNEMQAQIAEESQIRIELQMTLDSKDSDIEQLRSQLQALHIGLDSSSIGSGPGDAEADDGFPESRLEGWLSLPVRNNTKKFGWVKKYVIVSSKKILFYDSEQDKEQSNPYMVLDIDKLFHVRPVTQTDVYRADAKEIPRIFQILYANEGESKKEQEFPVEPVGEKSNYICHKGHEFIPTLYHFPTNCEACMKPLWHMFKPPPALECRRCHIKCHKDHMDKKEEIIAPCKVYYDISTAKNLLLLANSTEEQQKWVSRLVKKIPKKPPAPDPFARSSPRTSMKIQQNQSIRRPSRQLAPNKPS
T2 sequence (Q13464 whole entry): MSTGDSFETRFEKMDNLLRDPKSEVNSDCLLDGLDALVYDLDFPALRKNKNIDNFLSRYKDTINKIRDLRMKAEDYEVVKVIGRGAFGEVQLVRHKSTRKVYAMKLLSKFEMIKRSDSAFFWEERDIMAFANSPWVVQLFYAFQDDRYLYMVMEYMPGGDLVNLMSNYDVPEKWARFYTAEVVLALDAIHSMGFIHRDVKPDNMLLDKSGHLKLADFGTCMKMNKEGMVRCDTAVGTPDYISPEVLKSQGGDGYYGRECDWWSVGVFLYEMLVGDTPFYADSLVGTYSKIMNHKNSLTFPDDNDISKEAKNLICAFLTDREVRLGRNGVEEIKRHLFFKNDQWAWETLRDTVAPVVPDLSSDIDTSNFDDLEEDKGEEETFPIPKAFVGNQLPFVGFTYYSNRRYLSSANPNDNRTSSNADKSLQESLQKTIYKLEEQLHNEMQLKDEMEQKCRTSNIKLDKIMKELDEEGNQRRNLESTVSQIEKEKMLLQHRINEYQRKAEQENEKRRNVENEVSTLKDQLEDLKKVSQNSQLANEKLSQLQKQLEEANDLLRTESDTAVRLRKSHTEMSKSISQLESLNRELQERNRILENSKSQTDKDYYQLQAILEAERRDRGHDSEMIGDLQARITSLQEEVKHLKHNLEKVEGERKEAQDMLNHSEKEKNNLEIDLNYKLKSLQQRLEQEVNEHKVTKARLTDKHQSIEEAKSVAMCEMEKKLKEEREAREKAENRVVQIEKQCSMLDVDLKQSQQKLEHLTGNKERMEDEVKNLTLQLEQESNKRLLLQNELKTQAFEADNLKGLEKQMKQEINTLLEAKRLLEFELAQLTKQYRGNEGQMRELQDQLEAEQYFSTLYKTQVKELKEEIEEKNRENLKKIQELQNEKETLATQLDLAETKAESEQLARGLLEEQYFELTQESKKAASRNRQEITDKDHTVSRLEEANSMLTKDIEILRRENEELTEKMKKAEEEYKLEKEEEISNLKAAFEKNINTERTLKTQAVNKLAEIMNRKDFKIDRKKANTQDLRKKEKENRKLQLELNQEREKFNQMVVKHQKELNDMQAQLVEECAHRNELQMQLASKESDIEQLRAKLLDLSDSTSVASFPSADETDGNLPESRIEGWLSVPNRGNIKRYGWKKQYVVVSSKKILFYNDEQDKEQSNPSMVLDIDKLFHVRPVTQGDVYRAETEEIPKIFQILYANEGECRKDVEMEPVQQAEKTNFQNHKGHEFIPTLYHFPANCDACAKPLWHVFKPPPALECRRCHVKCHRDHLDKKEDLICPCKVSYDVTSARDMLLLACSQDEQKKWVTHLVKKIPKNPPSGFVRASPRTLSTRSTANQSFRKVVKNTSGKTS

| SMILES | IC50 [1] | IC50 [2] |
| --- | --- | --- |
| O=C(Nc1cccc(-c2cc(Nc3ccc4[nH]ncc4c3)no2)c1)c1c[nH]cn1 [Example 34, N-(3-(3-((1H-indazol-5-yl)amino)isoxazol-5-yl)phenyl)-1H-imidazole-4-carboxamide] | < 300 nM | < 300 nM |
| COc1cc(-c2nc(Nc3ccc4[nH]ncc4c3Cl)no2)ccc1OCC(=O)NC(C)C [Example 73, 2-[4-[3-[(4-chloro-1H-indazol-5-yl)amino]-1,2,4-oxadiazol-5-yl]-2-methoxy-phenoxy]-N-isopropyl-acetamide] | < 300 nM | 300 to 3000 nM |
| Cc1cn(-c2ccc3c(c2)CCN(C(=O)C2CCCC2)C3)nc1Nc1ccc2[nH]ncc2c1Cl [Example 81] | > 10000 nM | > 10000 nM |
| Cn1cc(C(=O)Nc2cc(-n3nc(Nc4ccc5[nH]ncc5c4Cl)c4ccccc43)cn(C)c2=O)cn1 [Example 69] | > 10000 nM | > 10000 nM |
| Cc1cc(Nc2ccc3[nH]ncc3c2)nn1-c1cccc(NC(=O)c2c[nH]cn2)c1 [Example 5, N-(3-(3-((1H-indazol-5-yl)amino)-5-methyl-1H-pyrazol-1-yl)phenyl)-1H-imidazole-4-carboxamide] | < 300 nM | 300 to 3000 nM |
| O=C(Nc1cccc(-n2nc(Nc3ccc4[nH]ncc4c3Cl)c3ccccc32)c1)c1cccnc1 [Example 32] | < 300 nM | > 10000 nM |
| Cn1cc(C(=O)Nc2cccc(-n3nc(Nc4ccc5[nH]ncc5c4Cl)c4cnccc43)c2)cn1 [Example 58] | < 300 nM | < 300 nM |
| COc1cc(-n2nc(Nc3ccc4[nH]ncc4c3Cl)c3ccccc32)ccc1OCC(=O)NC(C)C [Example 18] | 300 to 3000 nM | 3000 to 10000 nM |
| Cn1cc(C(=O)Nc2cccc(-c3nnc(Nc4ccc5[nH]ncc5c4Cl)o3)c2)cn1 [Example 55, N-(3-(5-((4-chloro-1H-indazol-5-yl)amino)-1,3,4-oxadiazol-2-yl)phenyl)-1-methyl-1H-pyrazole-4-carboxamide] | < 300 nM | < 300 nM |
| Cc1cn(-c2cccc(NC(=O)c3cccnc3)c2)nc1Nc1ccc2[nH]ncc2c1 [Example 4, N-(3-(3-((1H-indazol-5-yl)amino)-4-methyl-1H-pyrazol-1-yl)phenyl)nicotinamide] | < 300 nM | < 300 nM |
| Cn1cc(C(=O)Nc2cccc(-c3cc(Nc4ccc5[nH]ncc5c4Cl)no3)c2)cn1 [Example 74, N-(3-(3-((4-chloro-1H-indazol-5-yl)amino)isoxazol-5-yl)phenyl)-1-methyl-1H-pyrazole-4-carboxamide] | < 300 nM | < 300 nM |
| Cn1cc(C(=O)Nc2cc(-n3nc(Nc4ccc5[nH]ncc5c4Cl)c4ccccc43)ccc2F)cn1 [Example 57, N-(5-(3-((4-chloro-1H-indazol-5-yl)amino)-1H-indazol-1-yl)-2-fluorophenyl)-1-methyl-1H-pyrazole-4-carboxamide] | < 300 nM | < 300 nM |
| Cn1cc(C(=O)Nc2cccc(-c3noc(Nc4ccc5[nH]ncc5c4)n3)c2)cn1 [Example 42] | < 300 nM | < 300 nM |
| O=C(Cc1ncc[nH]1)Nc1cccc(-n2nc(Nc3ccc4[nH]ncc4c3)c3ccccc32)c1 [Example 27] | 300 to 3000 nM | 3000 to 10000 nM |
| COc1nc(-n2nc(Nc3ccc4[nH]ncc4c3Cl)c3ccccc32)ccc1OCC(=O)NC(C)C [Example 19] | < 300 nM | < 300 nM |
| COc1cc(-n2nc(C(F)(F)F)cc2Nc2ccc3[nH]ncc3c2Cl)ccc1OCC(=O)NC(C)C [Example 70, 2-(4-(5-((4-chloro-1H-indazol-5-yl)amino)-3-(trifluoromethyl)-1H-pyrazol-1-yl)-2-methoxyphenoxy)—N-isopropylacetamide] | 300 to 3000 nM | 300 to 3000 nM |
| O=C(Nc1cccc(-n2ccc(Nc3ccc4[nH]ncc4c3)n2)c1)c1cccnc1 [Example 6] | 300 to 3000 nM | 300 to 3000 nM |
| Cn1cc(C(=O)Nc2cccc(-c3cc(Nc4ccc5[nH]ncc5c4)no3)c2)cn1 [Example 33] | < 300 nM | < 300 nM |
| O=C(Nc1cccc(-c2nc(Nc3ccc4[nH]ncc4c3)no2)c1)c1cn[nH]c1 [Example 40] | < 300 nM | < 300 nM |
| Cn1cc(C(=O)Nc2ccnc(-n3nc(Nc4ccc5[nH]ncc5c4Cl)c4ccccc43)c2)cn1 [Example 47] | > 10000 nM | > 10000 nM |
| COc1cc(-n2cc(C)c(Nc3ccc4[nH]ncc4c3Cl)n2)ccc1C(=O)NC1CCCC1 [Example 87] | < 300 nM | 300 to 3000 nM |

| SMILES | IC50 [1] | IC50 [2] |
| --- | --- | --- |
| Cn1cc(C(=O)Nc2cccc(-n3nc(Nc4ccc5[nH]ncc5c4Cl)c4ncccc43)c2)cn1 [Example 56, N-(3-(3-((4-chloro-1H-indazol-5-yl)amino)-1H-pyrazolo[4,3-b]pyridin-1-yl)phenyl)-1-methyl-1H-pyrazole-4-carboxamide] | < 300 nM | 300 to 3000 nM |
| COC(=O)CN1CCOc2cc(-n3cc(C)c(Nc4ccc5[nH]ncc5c4Cl)n3)ccc21 [Example 76, methyl 2-[7-[3-[(4-chloro-1H-indazol-5-yl)amino]-4-methyl-pyrazol-1-yl]-2,3-dihydro-1,4-benzoxazin-4-yl]acetate] | > 10000 nM | > 10000 nM |
| Cn1cc(C(=O)Nc2cccc(-n3nc(Nc4ccc5[nH]ncc5c4)c4ccccc43)n2)cn1 [Example 45, N-(6-(3-((1H-indazol-5-yl)amino)-1H-indazol-1-yl)pyridin-2-yl)-1-methyl-1H-pyrazole-4-carboxamide] | < 300 nM | < 300 nM |
| COc1cc(-n2nc(Nc3ccc4[nH]ncc4c3Cl)cc2C)ccc1OCC(=O)NC(C)C [Example 14] | 300 to 3000 nM | > 10000 nM |
| Cn1cc(-c2nc3cc(-n4nc(Nc5ccc6[nH]ncc6c5Cl)c5ccccc54)ccc3o2)cn1 [Example 66] | > 10000 nM | > 10000 nM |
| Cc1cn(-c2cccc(NC(=O)c3cnn(C)c3)c2)nc1Nc1ccc2[nH]ncc2c1 [Example 3, N-(3-(3-((1H-indazol-5-yl)amino)-4-methyl-1H-pyrazol-1-yl)phenyl)-1-methyl-1H-pyrazole-4-carboxamide] | < 300 nM | < 300 nM |
| O=C(Nc1cccc(-c2nnc(Nc3ccc4[nH]ncc4c3)o2)c1)c1cccnc1 [Example 38] | < 300 nM | < 300 nM |
| Cc1cc(Nc2ccc3[nH]ncc3c2)nn1-c1cccc(NC(=O)c2cccnc2)c1 [Example 9] | < 300 nM | 300 to 3000 nM |
| COc1cc(-n2nc(Nc3ccc4[nH]ncc4c3)c3ccccc32)ccc1OCC(=O)NC(C)C [Example 17] | < 300 nM | 300 to 3000 nM |
| Clc1c(Nc2nnc(-c3cccc(-c4ncco4)c3)o2)ccc2[nH]ncc12 [Example 50, N-(4-chloro-1H-indazol-5-yl)-5-(3-(oxazol-2-yl)phenyl)-1,3,4-oxadiazol-2-amine] | < 300 nM | < 300 nM |
| Cc1cn(-c2ccc3c(c2)CCN(CC(C)C)C3=O)nc1Nc1ccc2[nH]ncc2c1Cl [Example 84, 6-[3-[(4-chloro-1H-indazol-5-yl)amino]-4-methyl-pyrazol-1-yl]-2-isobutyl-3,4-dihydroisoquinolin-1-one] | < 300 nM | 3000 to 10000 nM |
| O=C(Nc1cccc(-c2nc(Nc3ccc4[nH]ncc4c3Cl)no2)c1)c1ccccc1F [Example 64] | < 300 nM | 300 to 3000 nM |
| Cn1cc(C(=O)Nc2cccc(-c3nnc(Nc4ccc5[nH]ncc5c4)o3)c2)cn1 [Example 36] | < 300 nM | < 300 nM |
| O=C(Nc1cccc(-c2nc(Nc3ccc4[nH]ncc4c3)no2)c1)c1cccnc1 [Example 41] | < 300 nM | 300 to 3000 nM |
| Cn1cc(C(=O)Nc2cccc(-n3nc(Nc4ccc5[nH]ncc5c4Cl)c4ccncc43)c2)cn1 [Example 59] | < 300 nM | > 10000 nM |
| Cc1cn(-c2ccc3c(c2)CCN(C(=O)NC(C)C)C3)nc1Nc1ccc2[nH]ncc2c1Cl [Example 78, 6-(3-((4-chloro-1H-indazol-5-yl)amino)-4-methyl-1H-pyrazol-1-yl)-N-isopropyl-3,4-dihydroisoquinoline-2(1H)-carboxamide] | < 300 nM | 300 to 3000 nM |
| O=C(Nc1cccc(-c2nnc(Nc3ccc4[nH]ncc4c3)o2)c1)c1cn[nH]c1 [Example 37] | > 10000 nM | > 10000 nM |
| COc1cc(-n2cc(C)c(Nc3ccc4[nH]ncc4c3Cl)n2)ccc1C(=O)NC(C)C [Example 85, 4-(3-((4-chloro-1H-indazol-5-yl)amino)-4-methyl-1H-pyrazol-1-yl)-N-isopropyl-2-methoxybenzamide] | < 300 nM | < 300 nM |
| Cc1cn(-c2ccc3c(c2)CCN(S(=O)(=O)C2CC2)C3)nc1Nc1ccc2[nH]ncc2c1Cl [Example 82] | < 300 nM | > 10000 nM |
| Cc1cn(-c2ccc3c(c2)OCCN3CC(=O)NC(C)C)nc1Nc1ccc2[nH]ncc2c1Cl [Example 77, 2-[7-[3-[(4-chloro-1H-indazol-5-yl)amino]-4-methyl-pyrazol-1-yl]-2,3-dihydro-1,4-benzoxazin-4-yl]-N-isopropyl-acetamide] | 300 to 3000 nM | 3000 to 10000 nM |

Source: patent US20240368132A1, “ROCK2 INHIBITORS AND USES THEREOF” (President and Fellows of Harvard College, priority 2021, published 2024)
